# ChEMBL document CHEMBL5230132, “Cannabinoid Receptor Subtype 2 (CB2R) in a Multitarget Approach: Perspective of an Innovative Strategy in Cancer and Neurodegeneration” (J Med Chem, 2020)
# Tests used:
# Cannabinoid receptor 2 [1] = target: T1, Cannabinoid receptor 2 (Homo sapiens, UniProt P34972); assay: Binding affinity to human CB2 receptor stably expressed in HEK cells assessed as inhibition constant by […]; format: cell-based
# Cannabinoid receptor 1 [2] = target: T2, Cannabinoid receptor 1 (Homo sapiens, UniProt P21554); assay: Displacement of [3H]CP55940 from human CB1 receptor stably expressed in CHO cells at 10 uM by radioligand binding assay relative to control; format: cell-based
# T2 sequence (P21554 whole entry): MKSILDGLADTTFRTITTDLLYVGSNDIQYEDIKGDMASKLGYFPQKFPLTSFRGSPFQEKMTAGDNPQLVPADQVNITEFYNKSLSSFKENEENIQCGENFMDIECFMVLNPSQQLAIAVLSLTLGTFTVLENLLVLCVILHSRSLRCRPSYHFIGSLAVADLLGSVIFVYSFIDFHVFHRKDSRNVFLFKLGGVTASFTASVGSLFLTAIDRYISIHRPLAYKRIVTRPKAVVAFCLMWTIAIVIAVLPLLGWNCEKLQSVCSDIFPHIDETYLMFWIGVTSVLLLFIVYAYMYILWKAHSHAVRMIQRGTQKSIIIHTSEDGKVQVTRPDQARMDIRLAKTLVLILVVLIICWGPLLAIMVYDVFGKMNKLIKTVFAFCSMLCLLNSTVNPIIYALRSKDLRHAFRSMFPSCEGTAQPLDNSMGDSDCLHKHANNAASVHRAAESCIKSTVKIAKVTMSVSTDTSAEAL
# Cannabinoid receptor 2 [3] = target: T1, Cannabinoid receptor 2; assay: Displacement of [3H]CP55940 from human CB2 receptor expressed in HEK293 cell membrane assessed as inhibition constant incubated for 1 hr by liquid scintillation counting method; format: cell membranes
# Cannabinoid receptor 1 [4] = target: Cannabinoid receptor 1 (Rattus norvegicus, UniProt P20272); assay: Displacement of [3H]CP55940 from rat brain membrane CB1 receptor assessed as inhibition constant incubated for 1 hr by liquid scintillation counting method; format: cell membranes
# Sequence of Cannabinoid receptor 1 (Rattus norvegicus, UniProt P20272) (P20272 whole entry): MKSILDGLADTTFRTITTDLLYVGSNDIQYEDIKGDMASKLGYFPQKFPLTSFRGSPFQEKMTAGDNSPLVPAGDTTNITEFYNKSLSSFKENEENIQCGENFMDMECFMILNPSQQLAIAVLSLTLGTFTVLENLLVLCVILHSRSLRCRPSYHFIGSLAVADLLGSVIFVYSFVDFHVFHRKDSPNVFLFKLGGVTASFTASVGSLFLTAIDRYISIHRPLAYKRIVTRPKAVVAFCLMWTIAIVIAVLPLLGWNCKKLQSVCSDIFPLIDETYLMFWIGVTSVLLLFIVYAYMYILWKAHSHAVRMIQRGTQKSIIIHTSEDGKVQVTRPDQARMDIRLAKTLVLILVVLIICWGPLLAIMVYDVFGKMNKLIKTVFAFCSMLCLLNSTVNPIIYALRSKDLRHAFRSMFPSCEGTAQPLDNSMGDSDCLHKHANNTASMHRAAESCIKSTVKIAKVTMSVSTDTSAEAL
# Cannabinoid receptor 2 [5] = target: T1, Cannabinoid receptor 2; assay: Displacement of [3H]CP55940 from human CB2 receptor
# Cannabinoid receptor 1 [6] = target: T2, Cannabinoid receptor 1; assay: Displacement of [3H]CP55940 from human CB1 receptor
# Cannabinoid receptor 1 [7] = target: T2, Cannabinoid receptor 1; assay: Binding affinity to human CB1 receptor stably expressing CHO cells assessed as inhibition constant by radioligand binding assay; format: cell-based
# Cannabinoid receptor 2 [8] = target: T1, Cannabinoid receptor 2; assay: Displacement of [3H]CP55940 from CB2 receptor (unknown origin) expressed in HEK cell membrane measured after 90 mins by competitive binding assay; format: cell membranes
# [9] = target: Cholinesterase (Homo sapiens) (UniProt P06276); assay: Inhibition of human BChE at 10 uM relative to control
# Sequence of Cholinesterase (Homo sapiens) (P06276 whole entry): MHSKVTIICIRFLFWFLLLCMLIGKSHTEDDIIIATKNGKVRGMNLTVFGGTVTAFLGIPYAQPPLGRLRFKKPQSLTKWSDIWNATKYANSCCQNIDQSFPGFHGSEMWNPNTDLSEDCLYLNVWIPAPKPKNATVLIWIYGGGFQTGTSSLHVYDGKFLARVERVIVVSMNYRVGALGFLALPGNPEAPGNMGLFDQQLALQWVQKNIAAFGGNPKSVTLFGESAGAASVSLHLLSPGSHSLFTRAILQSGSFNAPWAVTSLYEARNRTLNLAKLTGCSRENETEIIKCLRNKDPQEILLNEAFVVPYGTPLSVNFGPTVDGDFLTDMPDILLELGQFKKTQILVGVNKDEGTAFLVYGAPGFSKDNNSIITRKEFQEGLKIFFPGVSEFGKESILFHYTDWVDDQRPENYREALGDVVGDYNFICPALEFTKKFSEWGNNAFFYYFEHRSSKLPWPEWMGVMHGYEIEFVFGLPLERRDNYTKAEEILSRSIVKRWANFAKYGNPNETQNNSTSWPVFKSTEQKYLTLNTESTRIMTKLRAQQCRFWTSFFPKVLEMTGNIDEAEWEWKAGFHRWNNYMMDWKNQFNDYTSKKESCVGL
# Cannabinoid receptor 2 [10] = target: T1, Cannabinoid receptor 2; assay: Binding affinity to CB2 receptor (unknown origin) assessed as inhibition constant
# Cannabinoid receptor 1 [11] = target: T2, Cannabinoid receptor 1; assay: Binding affinity to CB1 receptor (unknown origin) assessed as inhibition constant
# T1 sequence (P34972 whole entry): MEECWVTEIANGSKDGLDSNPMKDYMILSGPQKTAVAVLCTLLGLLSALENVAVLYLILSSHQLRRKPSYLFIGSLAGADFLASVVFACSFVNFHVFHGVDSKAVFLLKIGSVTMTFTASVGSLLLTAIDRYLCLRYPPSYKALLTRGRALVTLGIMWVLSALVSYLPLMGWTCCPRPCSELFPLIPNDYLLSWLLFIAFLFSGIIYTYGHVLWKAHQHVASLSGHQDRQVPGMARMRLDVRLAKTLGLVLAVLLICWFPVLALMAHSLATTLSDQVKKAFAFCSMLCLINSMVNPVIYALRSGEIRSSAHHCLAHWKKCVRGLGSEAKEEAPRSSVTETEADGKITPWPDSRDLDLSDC
smiles,measurement,setting,value
CCOc1ccc(Nc2nc3cc(C(=O)N(CC)CC)ccc3n2CCC(C)C)cc1,Ki,Cannabinoid receptor 2 [1],1.9 nM
same,Activity,Cannabinoid receptor 1 [2],13%
CCC(C)(C)c1ccc2c(c1)OC(C)(C)C1CC=C(C)CC21 (stereo not drawn),Ki,Cannabinoid receptor 2 [3],14 nM
same,Ki,Cannabinoid receptor 1 [4],2290 nM
O=C(c1ccc2ccccc2c1)c1cn2c3c(cccc13)OCC2CN1CCOCC1 (stereo not drawn),Ki,Cannabinoid receptor 2 [5],3.3 nM
same,Ki,Cannabinoid receptor 1 [6],62.3 nM
CCOc1ccc(Cc2nc3cc(C(=O)N(CC)CC)ccc3n2CCC(C)C)cc1,Ki,Cannabinoid receptor 1 [7],> 5000 nM
CCCC(C)(C)c1ccc2c(c1)OC(C)(C)C1CC=C(C)CC21 (stereo not drawn),Ki,Cannabinoid receptor 2 [3],3.4 nM
same,Ki,Cannabinoid receptor 1 [4],677 nM
CN1CCCCC1Cn1cc(C(=O)c2cc([N+](=O)[O-])ccc2I)c2ccccc21 (stereo not drawn),Ki,Cannabinoid receptor 2 [8],7 nM
CCN(CC)C(=O)c1ccc2c(c1)nc(Nc1ccc(Oc3ccccc3)cc1)n2CCC(C)C,inhibition,[9],2%
CCCn1c(C)c(C(=O)c2ccc3ccccc3c2)c2ccccc21,Ki,Cannabinoid receptor 2 [10],13.8 nM
same,Ki,Cannabinoid receptor 1 [11],383 nM
